Measurements published in publication PMC8379256, “A xanthene derivative, DS20060511, attenuates glucose intolerance by inducing skeletal muscle-specific GLUT4 translocation in mice” (Communications Biology, 2021).
Values joined by “and” are separate entries in the source; they are usually repeats but may differ in a detail not shown here. Identical values can stand only once.

How the values were obtained:
Format in all cases: in vivo, mouse
C57BL/6 mice = assay: Oral glucose tolerance test (GTT) in C57BL/6 mice: blood glucose and plasma insulin; set-up: Blood glucose AUC: unit not given here
Method: Fig. 2 Treatment with DS20060511 decreases the blood glucose levels via inducing GLUT4 translocation and increasing skeletal muscle glucose uptake. a, b Blood glucose levels after treatment with DS20060511 (30 mg kg^−1) in C57BL/6 mice that had received continued access to food (a) and mice that had been denied access to food overnight (b) (n = 8). Values shown are means ± SEM. **P < 0.01 vs. 0 min by one-way ANOVA followed by Dunnett’s test. c Blood glucose and plasma insulin levels during oral GTT in the C57BL/6 mice (n = 5–6). The mice received oral administration of vehicle or DS20060511 at the indicated dose, 15 min prior to glucose administration (1.5 g kg^−1). Values shown are means ± SEM. *P < 0.05, **P < 0.01 vs. vehicle by one-way ANOVA followed by Williams’ test. d [^3H]-2-DG uptake in the soleus muscle, gastrocnemius muscle (Gastro.), heart, and white adipose tissue (WAT) at 60 min during the intraperitoneal GTT in the C57BL/6 mice (n = 3). The mice received oral administration of vehicle or DS20060511 (30 mg kg^−1), 15 min prior to glucose administration (1 g kg^−1 glucose containing [^3H]-2-DG). […] Uncropped blots for e can be found in Supplementary Fig. 6.
(§1) Mice that had been denied access to food overnight received the indicated oral dose of DS20060511 or vehicle 15 min prior to the glucose load (1.5 g kg^−1, except for eNOS-knockout mice, which received 3.0 g kg^−1). Then, after the oral glucose load, the blood glucose levels were measured using Glutest Every in samples obtained from the tail vein at the indicated timepoints. Plasma insulin concentrations were also measured with an ELISA kit (Morinaga Institute of Biological Science, Yokohama, Japan) in blood samples collected from the tail vein at the indicated timepoints.

HFD-fed mice = assay: Oral GTT in normal-chow and high-fat diet (HFD)-fed mice; conditions: for Blood glucose / Plasma insulin: Glucose tolerance test, HFD, 30 mg/kg, individual animals
Method: Fig. 8 Acute and chronic DS20060511 treatment improves glucose intolerance in HFD-fed and db/db mice. a Blood glucose and plasma insulin levels during an oral GTT in normal-chow (NC)- and high-fat diet (HFD)-fed mice (n = 5). Vehicle or DS20060511 (30 mg kg^−1) was given orally 15 min before the oral glucose administration (1.5 g kg^−1). Values shown are means ± SEM. *P < 0.05, **P < 0.01, ***P < 0.001 vs. the HFD vehicle by the t-test. b Effects of 10 μM DS20060511 and 100 nM insulin on 2-DG uptake in muscles isolated from NC-fed (n = 6) and HFD-fed (n = 5) mice. Values shown are means ± SEM. **P < 0.01 by one-way ANOVA followed by Tukey’s test. c, d Changes in the blood glucose levels and AUC on day 1 and day 28 during refeeding (n = 6) in db/db mice treated chronically with DS20060511 (10 mg kg^−1 day^−1). Values shown are means ± SEM. *P < 0.05, **P < 0.01, ***P < 0.001 vs. vehicle by the t-test. e Change of the HbA1c levels in the db/db (n = 6) mice at 4 weeks. Values shown are means ± SEM. *P < 0.05 vs. vehicle by the t-test.
C57BL/6 and db/db mice were purchased from CLEA Japan, Tokyo, Japan. GLUT4- knockout mice were generated at RIKEN BioResource Center, Tsukuba, Japan, according to a previously described method. eNOS-knockout mice were kindly provided by Dr. Masato Tsutsui[41],[42]. The mice were group-housed under controlled illumination (12:12 h light-dark cycle) and temperature (23 ± 2 °C) conditions and given free access to normal chow and water, unless otherwise specified. The HFD-fed obese mice were prepared by feeding C57BL/6 mice a HFD for at least 8 weeks from 6 weeks of age. […] Male mice were used for all the experiments in this study. The animal care and experimental procedures used in the study were approved by The University of Tokyo Animal Care Committee (Approval number: 27-3), and the study was carried out in accordance with the Animal Experimentation Guidelines of Daiichi Sankyo Co., Ltd (Approved number: 20000411).
as §1

WT and eNOSKO mice = assay: Oral GTT in wild-type and eNOS-knockout mice; conditions: Glucose tolerance test, 30 mg/kg, individual animals

## COc1ccc2c(C)c(C(=O)O)ccc2c1C1C2=C(CC(C)(C)CC2=O)OC2=C1C(=O)CC(C)(C)C2 [DS20060511]
C57BL/6 mice; all DS20060511-treated groups, Fig. 2c
  insulin secretion during oral GTT (in words): significantly decreased
C57BL/6 mice; oral GTT, 1 mg/kg
  Blood glucose AUC: 366 and 401 and 377 and 335 and 390 and 419
  Plasma insulin AUC: 0.29 and 0.49 and 0.32 and 0.27 and 0.43
C57BL/6 mice; oral GTT, 1 mg/kg po at -15 min, -15 min, 1 mg/kg
  Blood glucose: 83 mg/dL and 81 mg/dL and 91 mg/dL and 77 mg/dL and 94 mg/dL and 72 mg/dL
C57BL/6 mice; oral GTT, 1 mg/kg, 0 min
  Blood glucose: 104 mg/dL and 115 mg/dL and 92 mg/dL and 106 mg/dL and 89 mg/dL
C57BL/6 mice; oral GTT, 1 mg/kg, 15 min
  Blood glucose: 270 mg/dL and 311 mg/dL and 217 mg/dL and 301 mg/dL
C57BL/6 mice; oral GTT, 1 mg/kg, 30 min
  Blood glucose: 242 mg/dL and 212 mg/dL and 228 mg/dL and 193 mg/dL and 199 mg/dL and 254 mg/dL
  Plasma insulin: 0.30 ng/mL and 0.44 ng/mL and 0.25 ng/mL and 0.34 ng/mL and 0.42 ng/mL and 0.33 ng/mL
C57BL/6 mice; oral GTT, 1 mg/kg, 60 min
  Blood glucose: 171 mg/dL and 217 mg/dL and 165 mg/dL and 153 mg/dL and 199 mg/dL and 230 mg/dL
C57BL/6 mice; oral GTT, 1 mg/kg, 90 min
  Blood glucose: 118 mg/dL and 159 mg/dL and 127 mg/dL and 138 mg/dL and 142 mg/dL and 153 mg/dL
C57BL/6 mice; oral GTT, 1 mg/kg, 120 min
  Blood glucose: 106 mg/dL and 119 mg/dL and 109 mg/dL and 124 mg/dL and 132 mg/dL
C57BL/6 mice; oral GTT, 3 mg/kg
  Blood glucose AUC: 360 and 323 and 398 and 316 and 320 and 374
  Plasma insulin AUC: 0.28 and 0.40 and 0.34 and 0.29 and 0.31
C57BL/6 mice; oral GTT, 3 mg/kg, 0 min
  Blood glucose: 104 mg/dL and 117 mg/dL and 90 mg/dL
C57BL/6 mice; oral GTT, 3 mg/kg, 15 min
  Blood glucose: 263 mg/dL and 240 mg/dL and 249 mg/dL and 228 mg/dL
  Plasma insulin: 0.51 ng/mL and 0.58 ng/mL and 0.65 ng/mL and 0.53 ng/mL
C57BL/6 mice; oral GTT, 3 mg/kg, 30 min
  Blood glucose: 228 mg/dL and 164 mg/dL and 233 mg/dL and 181 mg/dL
  Plasma insulin: 0.28 ng/mL and 0.30 ng/mL and 0.37 ng/mL and 0.39 ng/mL and 0.26 ng/mL
C57BL/6 mice; oral GTT, 3 mg/kg, 60 min
  Blood glucose: 161 mg/dL and 142 mg/dL and 202 mg/dL and 152 mg/dL
C57BL/6 mice; oral GTT, 3 mg/kg, 90 min
  Blood glucose: 132 mg/dL and 126 mg/dL and 148 mg/dL and 100 mg/dL
C57BL/6 mice; oral GTT, 3 mg/kg, 120 min
  Blood glucose: 105 mg/dL and 122 mg/dL and 129 mg/dL
C57BL/6 mice; oral GTT, 3 mg/kg, -15 min
  Blood glucose: 82 mg/dL and 84 mg/dL and 94 mg/dL and 79 mg/dL
C57BL/6 mice; oral GTT, 10 mg/kg
  Blood glucose AUC: 294 and 310 and 309 and 270 and 269
  Plasma insulin AUC: 0.29 and 0.30 and 0.32 and 0.43 and 0.41
C57BL/6 mice; oral GTT, 10 mg/kg, 15 min
  Plasma insulin: 0.51 ng/mL and 0.50 ng/mL and 0.54 ng/mL and 0.40 ng/mL and 0.68 ng/mL
C57BL/6 mice; oral GTT, 10 mg/kg, 30 min
  Plasma insulin: 0.35 ng/mL and 0.28 ng/mL and 0.43 ng/mL and 0.31 ng/mL and 0.46 ng/mL
C57BL/6 mice; oral GTT, 30 mg/kg
  Blood glucose AUC: 258 and 200 and 219 and 225 and 241
  Plasma insulin AUC: 0.21 and 0.30 and 0.35 and 0.22 and 0.34
C57BL/6 mice; oral GTT, 30 mg/kg, 15 min
  Plasma insulin: 0.46 ng/mL and 0.58 ng/mL and 0.48 ng/mL and 0.34 ng/mL
C57BL/6 mice; oral GTT, given prior to glucose load, Fig. 2c
  blood glucose levels after oral glucose load (in words): dose-dependent suppression of rise of the blood glucose levels
HFD-fed mice; 0 min
  Blood glucose: 194 mg/dL and 178 mg/dL and 193 mg/dL and 108 mg/dL and 185 mg/dL
  Plasma insulin: 0.79 ng/mL and 1.09 ng/mL and 0.57 ng/mL and 0.32 ng/mL and 0.69 ng/mL
HFD-fed mice; 15 min
  Blood glucose: 331 mg/dL and 278 mg/dL and 279 mg/dL and 180 mg/dL and 270 mg/dL
  Plasma insulin: 3.22 ng/mL and 2.72 ng/mL and 2.47 ng/mL and 1.43 ng/mL and 1.91 ng/mL
HFD-fed mice; 30 min
  Blood glucose: 200 mg/dL and 213 mg/dL and 232 mg/dL and 161 mg/dL
  Plasma insulin: 1.03 ng/mL and 1.28 ng/mL and 0.97 ng/mL and 0.53 ng/mL and 0.78 ng/mL
HFD-fed mice; 60 min
  Blood glucose: 209 mg/dL and 214 mg/dL and 235 mg/dL and 141 mg/dL and 229 mg/dL
HFD-fed mice; 90 min
  Blood glucose: 199 mg/dL and 201 mg/dL and 204 mg/dL and 164 mg/dL and 209 mg/dL
HFD-fed mice; 120 min
  Blood glucose: 188 mg/dL and 154 mg/dL and 227 mg/dL and 155 mg/dL and 189 mg/dL
HFD-fed mice; -15 min
  Blood glucose: 212 mg/dL and 167 mg/dL and 176 mg/dL and 120 mg/dL and 197 mg/dL
  Plasma insulin: 1.31 ng/mL and 2.09 ng/mL and 1.16 ng/mL and 0.67 ng/mL
HFD-fed mice; HFD-fed mice, 30 mg kg−1 po
  blood glucose levels during oral GTT (in words): significantly decreased the blood glucose levels
  plasma insulin levels during oral GTT (in words): rather decreased
WT and eNOSKO mice; 0 min
  Blood glucose: 77 mg/dL
WT and eNOSKO mice; -15 min
  Blood glucose: 65 mg/dL
